In patent publication US5405845A, “(Pyrrolidinyl)phenyl carbamate derivatives and use” (priority 1994, dated 1995):

Tests used:
acetylcholinesterase [1] = experiment: ex vivo inhibition acetylcholinesterase assay (modified Ellman); format: in vivo, male Wistar rats
acetylcholinesterase [2] = molecular target: T1, acetylcholinesterase (Rattus norvegicus, UniProt P37136); experiment: in vitro inhibition of acetylcholinesterase assay (modified Ellman); format: biochemical, Male Wistar rat (corpora striata homogenate)
T1 construct: corpora striata dissected free, weighed and homogenized in 19 volumes; from tissue; host or cells: corpora striata of male Wistar rats, crude homogenate
T1 sequence (P37136 32-614): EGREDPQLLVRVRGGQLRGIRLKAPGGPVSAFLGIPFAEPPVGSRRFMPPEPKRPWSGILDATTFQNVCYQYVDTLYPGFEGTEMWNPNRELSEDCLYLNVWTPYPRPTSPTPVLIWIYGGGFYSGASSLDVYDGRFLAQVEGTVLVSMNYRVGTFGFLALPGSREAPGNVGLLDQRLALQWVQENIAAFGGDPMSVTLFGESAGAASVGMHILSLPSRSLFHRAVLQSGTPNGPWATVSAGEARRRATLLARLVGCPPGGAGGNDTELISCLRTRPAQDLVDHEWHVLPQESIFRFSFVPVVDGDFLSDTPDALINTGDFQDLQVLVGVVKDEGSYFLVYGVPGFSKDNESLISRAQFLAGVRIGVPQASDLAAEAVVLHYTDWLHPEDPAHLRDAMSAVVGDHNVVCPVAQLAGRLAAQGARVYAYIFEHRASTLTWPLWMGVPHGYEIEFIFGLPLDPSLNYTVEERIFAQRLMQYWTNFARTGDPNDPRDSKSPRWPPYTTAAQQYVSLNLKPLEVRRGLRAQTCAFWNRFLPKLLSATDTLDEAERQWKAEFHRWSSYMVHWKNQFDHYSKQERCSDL
Method: In this assay, a modification of a test described by G. L. Ellman, et al., Biochemical Pharmacology, 7, 88 (1961), the following reagents are prepared and employed:
1.0.05M Phosphate Buffer (pH 7.2)
A solution of monobasic sodium phosphate monohydrate (6.85 g) in distilled water (100 ml) is added to a solution of dibasic sodium phosphate heptahydrate (13.4 g) and distilled water (100 ml) until a pH of 7.2 was attained. The solution was diluted 1 to 10 with distilled water.
The 0.05M Phosphate Buffer (pH 7.2) was added to acetylthiocholine (198 mg) to a total volume of 100 ml, i.e., a quantity sufficient (gs) to 100 ml.
3. 5,5-Dithiobisnitrobenzoic acid in Buffer
The 0.05M Phosphate Buffer (pH 7.2) was added to 5,5-dithiobisnitrobenzoic acid to a total volume of 100 ml, i.e., a quantity sufficient (gs) to 100 ml.
4. Stock Solution of Drug
A 2 millimolar stock solution of the test drug is prepared in a quantity sufficient of either acetic acid or dimethyl sulfoxide to volume with 5,5-Dithiobisnitrobenzoic Acid in Buffer. Stock Solution of Drug is serially diluted (1:10) so that the final cuvette concentration is 10^-4 molar.
Male Wistar rates are decapitated, brains rapidly removed, corpora striata dissected free, weighed and homogenized in 19 volumes (approximately 7 mg protein/ml) of 0.05M phosphate Buffer (pH 7.2) using a Potter-Elvehjem homogenizer. A 25 μl aliquot of this suspension is added to 1 ml of the vehicle or various concentrations of the test drug and preincubated for 10 minutes at 37° C. Enzyme activity is measured with a Beckman DU-50 spectrophotometer with the following software and instrument settings:
1. Kinetics Soft-Pac™ Module #598273;
6. Cuvettes--2 ml cuvettes using auto 6-sampler;
7. Blank--1 for each substrate concentration;
8. Interval time--15 seconds (15 or 30 seconds for kinetics);
9. Total time--5 minutes (5 or 10 minutes for kinetics);
14 12. Slope--increasing;
13. Results--yes (gives slope); and
Reagents are added to the blank and sample cuvettes as follows:
1. Blank: 0.8 ml 5,5-Dithiobisnitrobenzoic Acid 0.8 ml Substrate in Buffer
2. Control: 0.8 ml 5,5-Dithiobisnitrobenzoic Acid/Enzyme 0.8 ml Substrate in Buffer
3. Drug: 0.8 ml 5,5-Dithiobisnitrobenzoic Acid/Drug/Enzyme 0.8 ml Substrate in Buffer
Blank values are determined for each run to control for non-enzymatic hydrolysis of substrate and these values are automatically subtracted by the Kindata program available on kinetics soft-pac module. This program also calculates the rate of absorbance change for each cuvette.
Substrate concentration is 10 millimolar diluted 1:2 in assay yielding final concentration of 5 millimolar. 5,5-Dithiobisnitrobenzoic acid concentration is 0.5 millimolar yielding 0.25 millimolar final concentration. [formula]
IC50 values are calculated from log-probit analysis

Row | SMILES | IC50 (acetylcholinesterase [2]) [µM] | further results
1 | CNC(=O)Oc1ccc2c(c1)[C@]1(C)CCN(C)[C@@H]1N2C [physostigmine, reference compound] | – | Inhibition of Acetylcholinesterase Activity Percent Inhibition @ 1 hr (acetylcholinesterase [1]; 0.3 mg/kg intraperitoneal, forebrain): 27%
2 | CNC(=O)Oc1cccc(C2CCC(=O)N2CCN2CCOCC2)c1 (stereo not shown) [3-{1-[2-(4-Morpholinyl)ethyl]-5-oxo-2-pyrrolidinyl}phenyl methylcarbamate] | 18.7 | –
3 | CNC(=O)Oc1cccc(C2CCCN2CCc2ccccc2)c1 (stereo not shown) [3-[1-(2-Phenylethyl)-2-pyrrolidinyl]phenyl methylcarbamate] | – | Inhibition of Acetylcholinesterase Activity Percent Inhibition @ 1 hr (acetylcholinesterase [1]; 10 mg/kg per os, forebrain): 25%
4 | CNC(=O)Oc1cccc(C2CCC(=O)N2Cc2ccncc2)c1 (stereo not shown) [3-[1-((4-Pyridinyl)methyl)-5-oxo-2-pyrrolidinyl]phenyl methylcarbamate hemifumarate] | 1.44 | –
5 | O=C(Oc1cccc(C2CCCN2Cc2ccncc2)c1)N1CCc2ccccc2C1 (stereo not shown) [3-[1-(4-Pyridinylmethyl)-2-pyrrolidinyl]phenyl 3,4-dihydro-2(1H)-isoquinoline carbamate hemifumarate] | 0.568 | –
6 | CNC(=O)Oc1cccc(C2CCCN2CCN2CCOCC2)c1 (stereo not shown) [3-{1-[2-(4-Morpholinyl)ethyl]-2-pyrrolidinyl}phenyl methylcarbamate bis-fumarate] | 0.529 | –
7 | CCN1CCCC1c1cccc(OC(=O)NC)c1 (stereo not shown) [3-[1-Ethyl-2-pyrrolidinyl]phenyl methylcarbamate] | – | Inhibition of Acetylcholinesterase Activity Percent Inhibition @ 1 hr (acetylcholinesterase [1]; 1 mg/kg per os, forebrain): 73%
8 | CNC(=O)Oc1cccc(C2CCCN2Cc2ccncc2)c1 (stereo not shown) [3-[1-(4-Pyridinylmethyl)-2-pyrrolidinyl]phenyl methylcarbamate] | 0.0244 | Inhibition of Acetylcholinesterase Activity Percent Inhibition @ 1 hr (acetylcholinesterase [1]; 10 mg/kg per os, striatum): 80%
9 | CNC(=O)Oc1cccc(C2CCCN2Cc2cccnc2)c1 (stereo not shown) [3-[1-(3-Pyridinylmethyl)-2-pyrrolidinyl]phenyl methylcarbamate] | – | Inhibition of Acetylcholinesterase Activity Percent Inhibition @ 1 hr (acetylcholinesterase [1]; 10 mg/kg per os, forebrain): 51%
